Measured values: paper PMC6267684, “Pharmacokinetic evaluation of the PNC disassembler metarrestin in wild-type and Pdx1-Cre;LSL-Kras^G12D/+;Tp53^R172H/+ (KPC) mice, a genetically engineered model of pancreatic cancer” (Cancer Chemotherapy and Pharmacology, 2018)
Where “and” joins values, the source holds several entries; their conditions need not be identical. Equal entries are not always repeated. Where two headings read alike, the source gives them in different places.

What was measured:
[1] = Pharmacokinetics in tumor-bearing KPC mice after 25 mg/kg single or multiple dose oral gavage; format: in vivo; details: for AUC(0-t): po; for Kp: read-out: AUC0–24h ratio (tissue/plasma)
From the text: Animals with three or more tumors per organ, pancreatic cysts or cystic tumors, signs of intestinal, pancreatic or gall bladder duct occlusions, or otherwise moribund/showing signs of dilapidation were excluded. Mice were randomized into treatment groups using their tumor volume and location inside pancreas, animal age, gender, and weight by an unbiased covariate randomization.
For pharmacokinetic studies, metarrestin solutions prepared in 30% PEG-400 and 70% (20% w:v HP-β-CD in water) solution were administered to C57BL/6 mice at 3 mg/kg IV via tail vein injection, or 3 and 10 mg/kg orally via gavage. KPC mice were additionally treated with 25 mg/kg PO via gavage. The dosing volume was 3 mL/kg for IV route and 10 mL/kg for PO route. Dosing solutions were prepared on the day of administration. Blood samples were collected at 10, 20 min, 1, 2, 4, 7 and 24 h after 3 mg/kg IV administration. After oral administration of 3 and 10 mg/kg in C57BL6 mice, blood and liver samples were collected at 10 min, 0.5, 1, 2, 3, 5, 7, 9 and 24 h post dosing (n = 3 per time point). In KPC mice, blood, pancreatic tumor, spleen and liver samples were collected at 1, 2, 3, 6, 9, 12 and 24 h after 25 mg/kg PO administration.
For the assessment of multiple dose (MD) pharmacokinetics, KPC mice were treated with daily PO administration of 25 mg/kg metarrestin for 14 days. Plasma (100–300 µL), pancreatic tumors, spleen and liver samples were collected at 0, 3, 6, 9, 12, 15, 24 and 48 h after last dose from three mice at each time point. Daily dosing was carried for 14 days, with the last dose administered at 9:00 a.m. on Day 14. To assess the steady-state concentration of metarrestin in KPC mice, animals were treated with drug-formulated chow for 14 days. To control for daily cycle changes in feeding behavior, 9:00 a.m. on day 0 was designated as the study start time, and 9:00 a.m. on Day 14 was designated as the 0 h time point for sample collection. Blood, pancreatic tumor, spleen and liver tissue were collected at 0, 3, 6, 9, 12, 15, and 24 h from three mice at each time point while the animals were continuously fed with metarrestin-formulated chow on Day 14. Additional controls included mice with a matched drug-free diet, with blood and tissue samples collected at the initial (t = 0) and two intermediate (t = 9 h, t = 24 h) time points.
Blood samples were collected in K2EDTA tubes and plasma was harvested after centrifugation at 3000 rpm for 10 min. Tissue samples were weighed and flash-frozen for PK and PD mRNA expression analyses, embedded into OCT blocks for PNC determination and processed into FFPE blocks for histopathology assessment. All PK samples were stored at − 80 °C until analysis.
An ultra-performance liquid chromatography–tandem mass spectrometry (UPLC–MS/MS) method was developed to determine metarrestin concentrations in plasma and tissue samples. Mass spectrometric analysis was performed on a Waters Xevo TQ-S triple quadrupole instrument using electrospray ionization in positive mode. The separation was performed on an Acquity BEH C18 column (50 × 2.1 mm, 1.7 µ) using a Waters Acquity UPLC system with 0.6 mL/min flow rate and gradient elution. Mobile phase A was 0.1% formic acid in water, and B was 0.1% formic acid in acetonitrile (ACN). The column temperature was maintained at 60 °C. The calibration standards and quality control (QC) samples were prepared in the control blank mouse plasma and tissue homogenate. Tissues were homogenized with 3 or 6 volumes (v/w) of deionized water on the day of analysis. Proteins were precipitated from 10 µL plasma or 5 µL tissue homogenate with 200 µL ACN containing 100 ng/mL Tolbutamide as internal standard in 96-well plates. The mixture was vortexed for 2 min and centrifuged at 4000 rpm for 30 min at 4 °C. An aliquot of 150 µL supernatant was transferred to a 350-µL 96-well plate. 0.2 µL supernatant was injected for the UPLC–MS/MS analysis. Data were analyzed using MassLynx V4.1. […]

PNC in PC3M cells = experiment: PNC disassembly assay in PC3M cells; format: cell-based; details: PC3M (PTB-GFP) cells
Experimental: The PNC disassembly assay has been previously described. […] Cells were fixed with […] for 10 min at room temperature. […] Confocal images were obtained using Opera Phoenix (PerkinElmer, Waltham, MA) and a 20× objective lens.
To examine whether measured intratumor metarrestin concentrations measured in PK studies track with intracellular metarrestin concentration, we first decided to synthesize a fluorophore conjugated analog of metarrestin. Structure activity relationship studies around the structure of metarrestin were conducted in a high throughput assay that measured in dose dependence the ability of compounds to reducing PNC prevalence in PC3M cells. […] This analog was chemically conjugated to the fluorophore boron-dipyrromethene (BODIPY®) to track the disassembly of the PNC in PC3M cancer cells by confocal microscopy (Suppl. Figure 2). […] Next, to examine cellular metarrestin levels in relation to extracellular concentrations, we exposed KPC and PC3M cells at 1 and 10 µM concentrations of metarrestin and harvested cells at different timepoints.

[2] = KPC, mouse, pancreatic tumor, tumor, day 14, multiple PO doses 25 mg/kg/day
[3] = KPC, mouse, pancreatic tumor, tumor, single PO dose 25 mg/kg
[4] = KPC, mouse, liver, day 14, multiple PO doses 25 mg/kg/day
[5] = KPC, mouse, liver, single PO dose 25 mg/kg
[6] = KPC, mouse, plasma, day 14, multiple PO doses 25 mg/kg/day
[7] = KPC, mouse, plasma, single PO dose 25 mg/kg
[8] = KPC, mouse, spleen, day 14, multiple PO doses 25 mg/kg/day
[9] = KPC, mouse, spleen, single PO dose 25 mg/kg

Question: For N=c1c2c(-c3ccccc3)c(-c3ccccc3)n(Cc3ccccc3)c2ncn1[C@H]1CC[C@H](O)CC1 [metarrestin, Trans-4-(7-benzyl-4-imino-5,6-diphenyl-4,7-dihydro-3H-pyrrolo[2,3-d]pyrimidin-3-yl) cyclohexanol], which “intratumor AUC0–24h” value ([1]; 25 mg/kg PO gavage MD) is on record?
Answer: The value was 1,150,000 h ng/mL.

Question: What about the AUC(0-t) ([1]; KPC, mouse, liver, 25 mg/kg, liver, single PO dose 25 mg/kg, read-out: AUC0–24h) of the same molecule?
Answer: The AUC(0-t) was 536 µg·h/mL.

Question: What about the AUC(0-t) ([1]; KPC, mouse, liver, 25 mg/kg/day, liver, day 14, multiple PO doses 25 mg/kg/day, read-out: AUC0–24h) of the same molecule?
Answer: Its AUC(0-t) is 987 µg·h/mL.

Question: What about the AUC(0-t) ([1]; KPC, mouse, liver, 25 mg/kg/day, liver, day 14, multiple PO doses 25 mg/kg/day, read-out: AUC0–48h) of the same molecule?
Answer: Its AUC(0-t) is 1290 µg·h/mL.

Question: And the Kp ([1]; KPC, mouse, pancreatic tumor / plasma, tumor/plasma, day 14, multiple PO doses 25 mg/kg/day)?
Answer: Its Kp is 37.

Question: And the Kp ([1]; KPC, mouse, pancreatic tumor / plasma, tumor/plasma, single PO dose 25 mg/kg)?
Answer: Its Kp is 19.

Question: And the AUC(0-t) ([1]; KPC, mouse, pancreatic tumor, 25 mg/kg, tumor, single PO dose 25 mg/kg, read-out: AUC0–24h)?
Answer: The AUC(0-t) was 232 µg·h/mL.

Question: What about the AUC(0-t) ([1]; KPC, mouse, pancreatic tumor, 25 mg/kg/day, tumor, day 14, multiple PO doses 25 mg/kg/day, read-out: AUC0–24h) of the same molecule?
Answer: The AUC(0-t) was 1150 µg·h/mL.

Question: What about the AUC(0-t) ([1]; KPC, mouse, pancreatic tumor, 25 mg/kg/day, tumor, day 14, multiple PO doses 25 mg/kg/day, read-out: AUC0–48h) of the same molecule?
Answer: The AUC(0-t) was 1810 µg·h/mL.

Question: What about the concentration at 24 h ([1]; KPC, mouse, pancreatic tumor, 24 h after single dose 25 mg/kg PO, read-out: intratumor concentration (mean)) of the same molecule?
Answer: Its concentration at 24 h is 6200 ng/g and 13 µM.

Question: And the AUC(0-inf) [1, 2]?
Answer: The AUC(0-inf) was 2090 µg·h/mL.

Question: What about the Cmax [1, 2] of the same molecule?
Answer: The Cmax was 65000 ng/mL.

Question: And the Tmax [1, 2]?
Answer: The Tmax was 6 h.

Question: What about the half-life [1, 2] of the same molecule?
Answer: The half-life was 18 h.

Question: And the Cmax [1, 3]?
Answer: Its Cmax is 14000 ng/mL.

Question: What about the Tmax [1, 3] of the same molecule?
Answer: Its Tmax is 6 h.

Question: What about the AUC(0-t) ([1]; KPC, mouse, plasma, 25 mg/kg, plasma, single PO dose 25 mg/kg, read-out: AUC0–24h) of the same molecule?
Answer: Its AUC(0-t) is 12.1 µg·h/mL.

Question: What about the AUC(0-t) ([1]; KPC, mouse, plasma, 25 mg/kg/day, plasma, day 14, multiple PO doses 25 mg/kg/day, read-out: AUC0–24h) of the same molecule?
Answer: Its AUC(0-t) is 31.5 µg·h/mL.

Question: And the AUC(0-t) ([1]; KPC, mouse, plasma, 25 mg/kg/day, plasma, day 14, multiple PO doses 25 mg/kg/day, read-out: AUC0–48h)?
Answer: The AUC(0-t) was 38.4 µg·h/mL.

Question: And the AUC(0-t) ([1]; KPC, mouse, spleen, 25 mg/kg, spleen, single PO dose 25 mg/kg, read-out: AUC0–24h)?
Answer: The AUC(0-t) was 396 µg·h/mL.

Question: And the AUC(0-t) ([1]; KPC, mouse, spleen, 25 mg/kg/day, spleen, day 14, multiple PO doses 25 mg/kg/day, read-out: AUC0–24h)?
Answer: Its AUC(0-t) is 959 µg·h/mL.

Question: What about the AUC(0-t) ([1]; KPC, mouse, spleen, 25 mg/kg/day, spleen, day 14, multiple PO doses 25 mg/kg/day, read-out: AUC0–48h) of the same molecule?
Answer: Its AUC(0-t) is 1220 µg·h/mL.

Question: And the Kp ([1]; KPC, mouse, liver/plasma, day 14, multiple PO doses 25 mg/kg/day)?
Answer: The Kp was 31.

Question: What about the Kp ([1]; KPC, mouse, liver/plasma, single PO dose 25 mg/kg) of the same molecule?
Answer: Its Kp is 44.

Question: What about the AUC(0-inf) [1, 4] of the same molecule?
Answer: The AUC(0-inf) was 1350 µg·h/mL.

Question: And the Cmax [1, 4]?
Answer: The Cmax was 59500 ng/mL.

Question: What about the Tmax [1, 4] of the same molecule?
Answer: The Tmax was 6 h.

Question: And the half-life [1, 4]?
Answer: The half-life was 9.6 h.

Question: And the AUC(0-inf) [1, 5]?
Answer: The AUC(0-inf) was 653 µg·h/mL.

Question: What about the Cmax [1, 5] of the same molecule?
Answer: Its Cmax is 34200 ng/mL.

Question: And the Tmax [1, 5]?
Answer: Its Tmax is 6 h.

Question: What about the half-life [1, 5] of the same molecule?
Answer: The half-life was 9 h.

Question: What about the AUC(0-inf) [1, 6] of the same molecule?
Answer: The AUC(0-inf) was 39.3 µg·h/mL.

Question: What about the Cmax [1, 6] of the same molecule?
Answer: The Cmax was 2000 ng/mL.

Question: And the Tmax [1, 6]?
Answer: The Tmax was 3 h.

Question: What about the half-life [1, 6] of the same molecule?
Answer: The half-life was 8.2 h.

Question: What about the AUC(0-inf) [1, 7] of the same molecule?
Answer: The AUC(0-inf) was 14.4 µg·h/mL.

Question: And the Cmax [1, 7]?
Answer: Its Cmax is 810 ng/mL.

Question: And the Tmax [1, 7]?
Answer: The Tmax was 6 h.

Question: And the half-life [1, 7]?
Answer: Its half-life is 8.5 h.

Question: What about the Kp ([1]; KPC, mouse, spleen/plasma, day 14, multiple PO doses 25 mg/kg/day) of the same molecule?
Answer: The Kp was 30.

Question: And the Kp ([1]; KPC, mouse, spleen/plasma, single PO dose 25 mg/kg)?
Answer: Its Kp is 33.

Question: What about the AUC(0-inf) [1, 8] of the same molecule?
Answer: Its AUC(0-inf) is 1250 µg·h/mL.

Question: What about the Cmax [1, 8] of the same molecule?
Answer: Its Cmax is 62400 ng/mL.

Question: And the Tmax [1, 8]?
Answer: Its Tmax is 6 h.

Question: What about the half-life [1, 8] of the same molecule?
Answer: Its half-life is 8.2 h.

Question: And the AUC(0-inf) [1, 9]?
Answer: Its AUC(0-inf) is 495 µg·h/mL.

Question: And the Cmax [1, 9]?
Answer: The Cmax was 25000 ng/mL.

Question: And the Tmax [1, 9]?
Answer: The Tmax was 6 h.

Question: What about the half-life [1, 9] of the same molecule?
Answer: Its half-life is 9.7 h.

Question: What about the “AUC0–24h” value ([1]; liver, MD 25 mg/kg/day PO) of the same molecule?
Answer: The value was 987,000 ng h/g.

Question: And the “AUC0–24h” value ([1]; liver, SD 25 mg/kg PO)?
Answer: The value was 536,000 ng h/g.

Question: And the “AUC0–24h” value ([1]; tumor, MD 25 mg/kg/day PO)?
Answer: The value was 1,150,000 ng h/g.

Question: What about the “AUC0–24h” value ([1]; tumor, SD 25 mg/kg PO) of the same molecule?
Answer: The value was 232,000 ng h/g.

Question: What about the IC50 (PNC in PC3M cells; Homo sapiens, PC-3M) of the same molecule?
Answer: Its IC50 is 400 nM.

Question: What about the IC50 (PNC in PC3M cells) of the same molecule?
Answer: Its IC50 is 397 nM.
